This is an account of results in patent EP1166781A1, “PROTEASOME INHIBITORS” (KYOWA HAKKO KOGYO CO., LTD., priority 1999, dated 2000).

In one experiment the target is T1, proteasome (Homo sapiens, UniProt P28074).
T1 construct: The obtained high molecular fraction (molecular weight >500K) was used as an enzyme solution for the detection of proteasome activity; endogenous in cells; host or cells: HeLa S3 cells: homogenate, 100,000G supernatant, >500K fraction from Centricon-500
In words: Proteasome inhibitory activity (Suc-Leu-Leu-Val-Tyr-AMC cleavage, crude enzyme solution from HeLa S3 cell extract). It counts as biochemical. Here is the method:
1 x 10^9 of HeLa S3 cells were dispersed in 5 ml of the buffer A [20 mmol/L of Tris (pH 7.5), 2 mmol/L of ATP, 5 mmol/L of MgCl2, 1 mmol/L of dithiothreitol (DTT)], and then homogenized at 4°C. The supernatant centrifuged at 100,000G was concentrated by a Centricon-500 (supplied by Amicon) and diluted with 2.5 ml of the buffer B [25 mmol/L of Tris/HCl (pH 7.5), 2 mmol/L of ATP, 1 mmol/L of DTT, 20% of glycerol]. The obtained high molecular fraction (molecular weight >500K) was used as an enzyme solution for the detection of proteasome activity. Suc-Leu-Leu-Val-Tyr-AMC [Suc: Succinyl; AMC: Aminomethylcoumarin](supplied by Peptide Institute, Inc.) was used as a substrate for measuring inhibitory activity for proteasome (stored as a 2 mmol/L DMSO solution). The reaction was carried out by the following method using 96-well microtiter plates. To 96 µl of a reaction buffer [20 mmol/L of Tris/HCl (pH 8), 0.5 mmol/L of EDTA, 0.04% of sodium dodecylsulfate (SDS)] were added 1 µl of a drug solution (DMSO) and 2 µl of an enzyme solution followed by adding 1 µl of a substrate solution thereto, and then the mixture was incubated at 37°C for one hour. […]

The subject of experiment [1] is Human colon cancer, WiDr cells. In words: Antiproliferative activity in WiDr cells (MTT, 72 hours). In kind it is cell-based. Here is the method: Human colon cancer, WiDr cells suspended in MEM media containing 10% of fetal calf serum were seeded in 96-well microtiter plates at 2 x 10^3cells/well, and precultured in an incubator with 5% of CO2 at 37°C for 24 hours. Then, each compound diluted appropriately with the media was added into the well at 50 µl/well. At this time, a final concentration of each compound is up to 100 µmol/l or 1 µmol/l. The cells were cultured in the incubator with 5% of CO2 at 37°C for additional 72 hours. At 5 hours before the culturing was terminated, MTT [3-(4,5-dimethylthiazol-2-yl)-2,5-[…] bromide] dissolved in the medium at a final concentration of 1 mg/mL was added into the well at 50 µl/well. After the culturing, dimethyl sulfoxide was added to the well at 150 µl/well, and the plate was vigorously stirred using a plate mixer to dissolve crystals of MTT-formazan completely. […]

Experiment [2] has as its system human colon cancer cell line, WiDr transplanted in nude mice. In words: Antitumor activity for WiDr transplanted in nude mice. In kind it is in vivo, BALB/c-nu/nu mouse. The conditions noted are these: intraperitoneally for 5 consecutive days, 7 days, WiDr solid tumor in mice. As for the experimental part:
Compound 4 was dissolved in ethanol and then prepared at the fixed concentrations by adding cremophor EL (supplied by SIGMA) and saline. At this time, final concentrations of ethanol, cremophor EL, and saline are 5%, 7.5% and 87.5%, respectively. 2 mm x 2 mm of the tumor piece of human colon cancer cell line, WiDr was subcutaneously transplanted in the ventral site of a BALB/c-nu/nu mouse. At the time when a tumor volume [a major axis (a), a minor axis (b): ab^2/2] attained to 25-60 mm^3, the test compound prepared was intraperitoneally administered for 5 consecutive days to five mice as one proup.
For evaluating antitumor activity of the compound, the tumor volume was measured everyday, and the ratio of the volume (V) on the day of each measurement to the volume (V0) on the day when the administration of the compound was started was obtained to calculate T/C(%).

[3] abbreviates: crude proteasome fraction (>500K) from HeLa S3 cells, substrate Suc-Leu-Leu-Val-Tyr-AMC, 37°C for one hour, read-out: IC50.

Where two headings read alike, the source gives them in different places.

The term IC50 denotes the concentration at which inhibition is half-maximal. One may read the T/C as the result in the treated group divided by that in the control group, in per cent. Turning to `CCC(C)C1C(=O)OC1C(=O)NC1CC1CC(NC(=O)C(C)N)C(=O)OCc1ccccc1` (centres unmarked) [Compound 4], the IC50 at proteasome (setting [3]) is 30 nM; in experiment [1] it was 50 nM. The T/C was determined as 56% in experiment [2] (Dose 5.0 mg/kg/day) and 49% in experiment [2] (Dose 10.0 mg/kg/day).

As for `CCC(C)C1C(=O)OC1C(=O)NC1CC1CC(NC(=O)C(C)NC(=S)NCc1ccccc1)C(=O)OCc1ccccc1` (centres unmarked) [Compound 32], the IC50 on proteasome (setting [3]) was 5 nM; in experiment [1], 433 nM.

Regarding `CCC(C)C1C(=O)OC1C(=O)NC1CC1CC(NC(=O)C(C)NC(=O)c1ccccc1)C(=O)OCc1ccccc1` (centres unmarked) [Compound 33], the half-inhibitory concentration (IC50) was found to be 15 nM at proteasome (setting [3]) and 76 nM in experiment [1].

For the molecule `CCC(C)C1C(=O)OC1C(=O)NC1CC1CC(NC(=O)C(C)NC=O)C(=O)OCc1ccccc1` (centres unmarked) [Compound 34], the IC50 came to 38 nM on proteasome (setting [3]) and 1200 nM in experiment [1].

With `CCC(C)C1C(=O)OC1C(=O)NC1CC1CC(NC(=O)C(C)NC(C)=O)C(=O)OCc1ccccc1` (centres unmarked) [Compound 35], the figures for the IC50 (on proteasome (setting [3]); in experiment [1]) were 27 nM and 93 nM, respectively.

`CCC(C)C1C(=O)OC1C(=O)NC1CC1CC(NC(=O)C(C)NC(=O)c1cnccn1)C(=O)OCc1ccccc1` (centres unmarked) [Compound 36]: the IC50 was 21 nM on proteasome (setting [3]) and 62 nM in experiment [1].

`CCC(C)C1C(=O)OC1C(=O)NC1CC1CC(NC(=O)C(C)NC(=O)CO[Si](C)(C)C(C)(C)C)C(=O)OCc1ccccc1` (centres unmarked) [Compound 37]: the results for the half-inhibitory concentration (IC50) (at proteasome (setting [3]); in experiment [1]) were 6 nM and 5700 nM, respectively.

Turning to `CCC(C)C1C(=O)OC1C(=O)NC1CC1CC(NC(=O)C(C)NS(=O)(=O)c1ccccc1)C(=O)OCc1ccccc1` (centres unmarked) [Compound 39], the concentration for half-maximal inhibition (IC50) on proteasome (setting [3]) came out at 8 nM; in experiment [1], 486 nM.

Consider `CCC(C)C1C(=O)OC1C(=O)NC1CC1CC(NC(=O)C(C)NS(C)(=O)=O)C(=O)OCc1ccccc1` (centres unmarked) [Compound 40], for which the concentration for half-maximal inhibition (IC50) was found to be 24 nM on proteasome (setting [3]) and 450 nM in experiment [1].

On to `CCC(C)C1C(=O)OC1C(=O)NC1CC1CC(NC(=O)C(C)NP(=O)(c1ccccc1)c1ccccc1)C(=O)OCc1ccccc1` (centres unmarked) [Compound 41], for which the figures for the half-inhibitory concentration (IC50) (at proteasome (setting [3]); in experiment [1]) were 12 nM and 2400 nM, respectively.

For `CCC(C)C1C(=O)OC1C(=O)NC1CC1CC(NC(=O)C(C)N(Cc1ccccc1)Cc1ccccc1)C(=O)OCc1ccccc1` (centres unmarked) [Compound 43], the results for the half-inhibitory concentration (IC50) (on proteasome (setting [3]); in experiment [1]) were 14 nM and 3900 nM, respectively.

For `CCC(C)C1C(=O)OC1C(=O)NCCCC(NC(=O)C(C)NC(=O)OC(C)(C)C)C(=O)OCc1ccccc1` (centres unmarked) [Compound 45], the IC50 at proteasome was 6 nM; in experiment [1], 300 nM.

Take `CCC(C)C1C(=O)OC1C(=O)NCCCC(NC(=O)C(C)N)C(=O)OCc1ccccc1` (centres unmarked) [Compound 46]: the values for the concentration for half-maximal inhibition (IC50) (on proteasome (setting [3]); in experiment [1]) were 6 nM and 150 nM, respectively.

Regarding `CC(C)C[C@@H]1C(=O)O[C@H]1C(=O)NCCCC[C@H](NC(=O)[C@H](C)N)C(=O)OCc1ccccc1` [Compound 50], the IC50 on proteasome (setting [3]) worked out at 30 nM; in experiment [1] it was 1800 nM.

`CC(C)CC1C(=O)OC1C(=O)NCCCCC(COC(=O)c1ccccc1)NC(=O)C(C)NC(=O)OC(C)(C)C` (centres unmarked) [Compound 56]: the concentration for half-maximal inhibition (IC50) on proteasome (setting [3]) turned out to be 22 nM; in experiment [1], 1900 nM.

As to `CC(C)C[C@@H]1C(=O)O[C@H]1C(=O)NC1CC1CC(NC(=O)OC(C)(C)C)C(=O)NCc1cccc2ccccc12` (some centres unmarked) [Compound 90], the IC50 worked out at 22 nM at proteasome (setting [3]) and 40000 nM in experiment [1].

As for `CC(C)C[C@@H]1C(=O)O[C@H]1C(=O)NC1CC1CC(NC(=O)[C@H](C)NC(=O)OC(C)(C)C)C(=O)NCc1cccc2ccccc12` (some centres unmarked) [Compound 91], the values for the half-inhibitory concentration (IC50) (on proteasome (setting [3]); in experiment [1]) were 24 nM and 22000 nM, respectively.

Regarding `CCC(C)C1C(=O)OC1C(=O)NC1CC1CC(NC(=O)C(C)N)C(=O)O` (centres unmarked) [UCK14A1, reference compound], the half-maximal inhibitory concentration (IC50) at proteasome (setting [3]) is 400 nM; in experiment [1], above 30000 nM.
